# Results as given in US10233191B2, “Fused piperidine amides as modulators of ion channels” (Vertex Pharmaceuticals Incorporated, priority 2013, dated 2019).
# Molecular target: T1, NaV 1.7 (Homo sapiens, UniProt Q15858)
# T1 construct: expressed in transfected cells; host or cells: HEK cells
# Experiment: E-VIPR optical membrane potential assay with electrical stimulation
# Format: cell-based
# Details: active against one or more sodium channels; assay/subtype not specified in Table 4; read-out: IC50 Binned Activity Data
# In short: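 HEK cells expressing human NaV1.7, loaded with CC2-DMPE/DiSBAC6(3) FRET dyes, then exposed to compounds for 20-35 min at room temperature (0.625% DMSO). Electrical stimulation applied for 9 s with 400 Hz scanning. Read-out is the background-subtracted 460/580 nm emission ratio, normalized.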
# T1 sequence (Q15858 whole entry): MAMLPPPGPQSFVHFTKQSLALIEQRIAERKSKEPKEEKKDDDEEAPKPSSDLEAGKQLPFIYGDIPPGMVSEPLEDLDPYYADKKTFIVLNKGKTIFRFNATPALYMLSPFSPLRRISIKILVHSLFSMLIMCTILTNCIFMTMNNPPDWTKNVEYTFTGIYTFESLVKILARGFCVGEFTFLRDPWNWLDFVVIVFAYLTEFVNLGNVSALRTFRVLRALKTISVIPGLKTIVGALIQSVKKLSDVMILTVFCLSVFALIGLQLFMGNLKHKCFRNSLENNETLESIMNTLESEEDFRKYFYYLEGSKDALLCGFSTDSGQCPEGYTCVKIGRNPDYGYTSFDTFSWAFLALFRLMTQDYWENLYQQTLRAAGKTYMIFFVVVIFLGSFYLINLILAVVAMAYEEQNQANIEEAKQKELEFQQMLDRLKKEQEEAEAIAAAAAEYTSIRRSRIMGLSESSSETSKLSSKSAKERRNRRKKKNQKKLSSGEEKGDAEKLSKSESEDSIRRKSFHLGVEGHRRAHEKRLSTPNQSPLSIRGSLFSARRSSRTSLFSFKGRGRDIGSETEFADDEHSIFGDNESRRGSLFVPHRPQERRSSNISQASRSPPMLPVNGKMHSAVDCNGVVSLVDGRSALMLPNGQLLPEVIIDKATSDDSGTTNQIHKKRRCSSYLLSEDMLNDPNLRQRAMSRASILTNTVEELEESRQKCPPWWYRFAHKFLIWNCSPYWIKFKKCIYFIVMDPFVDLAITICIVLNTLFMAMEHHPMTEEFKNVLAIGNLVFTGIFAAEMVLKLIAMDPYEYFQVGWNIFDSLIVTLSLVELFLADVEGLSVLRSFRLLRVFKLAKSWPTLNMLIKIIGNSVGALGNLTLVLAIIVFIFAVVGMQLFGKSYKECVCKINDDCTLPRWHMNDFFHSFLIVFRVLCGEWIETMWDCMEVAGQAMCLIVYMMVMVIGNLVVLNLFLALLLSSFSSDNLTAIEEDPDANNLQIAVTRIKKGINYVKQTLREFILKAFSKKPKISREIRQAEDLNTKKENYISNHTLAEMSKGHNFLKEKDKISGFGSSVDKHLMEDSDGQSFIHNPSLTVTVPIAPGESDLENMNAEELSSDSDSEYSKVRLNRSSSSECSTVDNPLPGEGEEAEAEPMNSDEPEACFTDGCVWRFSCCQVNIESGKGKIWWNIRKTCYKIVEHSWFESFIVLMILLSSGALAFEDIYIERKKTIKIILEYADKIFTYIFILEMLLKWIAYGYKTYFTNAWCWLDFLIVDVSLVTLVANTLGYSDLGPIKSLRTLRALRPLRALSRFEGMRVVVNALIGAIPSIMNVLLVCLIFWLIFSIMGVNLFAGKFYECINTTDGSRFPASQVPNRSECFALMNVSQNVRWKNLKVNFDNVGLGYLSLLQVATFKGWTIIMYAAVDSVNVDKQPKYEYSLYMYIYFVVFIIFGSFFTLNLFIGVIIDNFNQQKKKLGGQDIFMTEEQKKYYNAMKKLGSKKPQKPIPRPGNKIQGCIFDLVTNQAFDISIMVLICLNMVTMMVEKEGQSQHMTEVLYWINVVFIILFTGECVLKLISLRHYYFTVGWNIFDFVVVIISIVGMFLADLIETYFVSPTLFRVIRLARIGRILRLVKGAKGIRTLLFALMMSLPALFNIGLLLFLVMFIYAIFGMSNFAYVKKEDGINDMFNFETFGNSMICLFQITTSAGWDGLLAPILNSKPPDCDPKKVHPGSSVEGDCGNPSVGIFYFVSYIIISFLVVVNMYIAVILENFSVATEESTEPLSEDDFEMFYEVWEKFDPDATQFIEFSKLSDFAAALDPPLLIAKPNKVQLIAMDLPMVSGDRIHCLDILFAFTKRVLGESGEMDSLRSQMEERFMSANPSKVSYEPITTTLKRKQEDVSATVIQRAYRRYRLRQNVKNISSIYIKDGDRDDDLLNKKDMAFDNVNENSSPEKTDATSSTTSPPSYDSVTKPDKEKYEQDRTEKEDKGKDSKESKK
row,SMILES,IC50 [µM]
1,COc1nc(C(=O)N2CC[C@]3(c4cccc(F)c4)OCOC3C2)ccc1OCC1CC=CC1 (stereo partly drawn) [Compound 232],≤ 2
2,COc1nc(C(=O)N2CC[C@]3(c4cccc(F)c4)OCOC3C2)ccc1OC1CC(F)(F)C1 (stereo partly drawn) [Compound 233],≤ 2
3,COc1nc(C(=O)N2CC[C@]3(c4cccc(F)c4)OCOC3C2)ccc1OC(C)C(F)(F)C(F)F (stereo partly drawn) [Compound 234],≤ 2
4,COc1nc(C(=O)N2CC[C@]3(c4cccc(F)c4)OCOC3C2)ccc1OCC1CCC(F)(F)C1 (stereo partly drawn) [Compound 235],≤ 2
5,COc1nc(C(=O)N2CC[C@]3(c4cccc(F)c4)OCOC3C2)ccc1OCC1CC2C(C1)C2(F)F (stereo partly drawn) [Compound 236],≤ 2
6,COc1nc(C(=O)N2CC[C@]3(c4cccc(F)c4)OCOC3C2)ccc1OCC1CC2C(C1)C2(F)F (stereo partly drawn) [Compound 237],≤ 2
7,O=C(c1ccc(OCCOC(F)(F)F)c(Cl)c1)N1CCC2(c3ccccn3)CC2C1 (stereo not drawn) [Compound 238],≤ 2
8,COc1ccnc([C@]23CCN(C(=O)c4ccc(OCC5CC(F)(F)C5)c(OC)n4)CC2OCO3)c1 (stereo partly drawn) [Compound 246],≤ 2
9,O=C(c1ccc(OCCOC(F)(F)F)c(Cl)c1)N1CC[C@@]2(c3ccccn3)C(C1)C2(F)F (stereo partly drawn) [Compound 247],≤ 2
10,COc1nc(C(=O)N2CC[C@]3(c4cccc(F)c4)OCOC3C2)ccc1OCC1CC(F)(F)C1(F)F (stereo partly drawn) [Compound 254],≤ 2
11,COc1cc(C(=O)N2CCC3(c4ccccn4)C(C2)C3(F)F)ccc1OCC1CC(F)(F)C1 (stereo not drawn) [Compound 259],≤ 2

# Results, then the molecule that gave them:
row,IC50 [µM],SMILES
1,≤ 2,COc1cc(C(=O)N2CC[C@]3(c4cccc(F)c4)OCOC3C2)ccc1OC(C)C(F)(F)C(F)F (stereo partly drawn) [Compound 239]
2,≤ 2,COc1cc(C(=O)N2CC[C@]3(c4cccc(F)c4)OCOC3C2)ccc1OCC1CC(F)C1 (stereo partly drawn) [Compound 240]
3,2 to 5,COc1cc(C(=O)N2CC[C@]3(c4cccc(F)c4)OCOC3C2)ccc1OCC1CCC1 (stereo partly drawn) [Compound 241]
4,≤ 2,COc1cc(C(=O)N2CC[C@]3(c4cccc(Cl)c4)OCOC3C2)ccc1O[C@H](C)C(F)(F)F (stereo partly drawn) [Compound 243]
5,≤ 2,COc1cc(C(=O)N2CC[C@]3(c4cccc(Cl)c4)OCOC3C2)ccc1O[C@@H](C)C(F)(F)F (stereo partly drawn) [Compound 244]
6,≤ 2,COc1ccnc([C@]23CCN(C(=O)c4ccc(OCCOC(F)(F)F)c(Cl)c4)CC2OCO3)c1 (stereo partly drawn) [Compound 245]
7,≤ 2,O=C(c1ccc(OCCOC(F)(F)F)c(Cl)c1)N1CC[C@]2(c3cc(C(F)(F)F)ccn3)OCOC2C1 (stereo partly drawn) [Compound 248]
8,≤ 2,CCOc1nc(C(=O)N2CC[C@]3(c4cccc(F)c4)OCOC3C2)ccc1OCCOC(F)(F)F (stereo partly drawn) [Compound 249]
9,≤ 2,COc1nc(C(=O)N2CC[C@]3(c4cc(C(F)(F)F)ccn4)OCOC3C2)ccc1OCC1CC(F)(F)C1 (stereo partly drawn) [Compound 250]
10,≤ 2,COc1cc(C(=O)N2CC[C@]3(c4cc(C(F)(F)F)ccn4)OCOC3C2)ccc1OCCC(F)(F)F (stereo partly drawn) [Compound 251]
11,≤ 2,COc1cc(C(=O)N2CC[C@]3(c4cccc(F)c4)OCOC3C2)ccc1OCCC1CC1(F)F (stereo partly drawn) [Compound 252]
12,≤ 2,O=C(c1ccc(OCCOC(F)(F)F)c(Cl)c1)N1CC[C@@]2(c3ccccn3)COC2C1 (stereo partly drawn) [Compound 253]
13,≤ 2,O=C(c1ccc(OCCOC(F)(F)F)c(Cl)c1)N1CC[C@]2(c3cccc(F)c3)OCOC2C1 (stereo partly drawn) [Compound 255]
14,≤ 2,Cc1cc(C(=O)N2CC[C@]3(c4cccc(F)c4)OCOC3C2)ccc1OCC(C)(C)F (stereo partly drawn) [Compound 256]
15,≤ 2,COc1cc(C(=O)N2CC[C@]3(c4cccc(F)c4F)OCOC3C2)ccc1O[C@H](C)C(F)(F)F (stereo partly drawn) [Compound 257]
16,≤ 2,COc1cc(C(=O)N2CC[C@]3(c4cccc(F)c4F)OCOC3C2)ccc1O[C@@H](C)C(F)(F)F (stereo partly drawn) [Compound 258]
